Laboratory results taken from US7109174B2, “Anticonvulsant derivatives useful for preventing the development of type II diabetes mellitus and syndrome X” (Ortho-McNeil Pharmaceutical, Inc., priority 2000, dated 2006).

System: male mice (ob/ob)
Test: Old male ob/ob mice: topiramate in food for 110 days; body weight, HbA1C, glucose, triglycerides, insulin, skin lesions
Type: in vivo
Details: for BG / BW / HbA1c / Insulin / Triglycerides: 110 days; for initial total incidence of skin lesions: when the study initiated (before dosing)
Procedure: Five- to seven-week old male mice (ob/ob) were purchased from The Jackson Laboratory (Bar Harbor, Me.). Upon arrival the mice were quarantined for five days and housed individually in wire mesh cages with 2-inch square “nestlets”. The mice were maintained at an ambient temperature of 21 to 23° C. on a 12 hour-12 hour light-dark schedule and given access to water and powdered chow ad libitum.
Topiramate was administered orally as a trace constituent in the food (0.143 to 2.54 mg/g). A precise quantity of topiramate was mixed thoroughly into a known amount of powdered lab chow using a mortar and pestle to grind the drug into the chow, after which the contents were placed in a 165 ounce lidded polyethylene tub and blended by shaking and rotating the tub. The lab chow (5002M Certified Diet Meal, manufactured in Brentwood, Mo. by Purina Mills, Inc.) was not less than 20% protein, 4.5% fat, and 64.5% CHO. The quantity of topiramate added to the food was based on the consumption of chow recorded during the previous three- or four-day period. The powdered food was put into stainless steel/aluminum feeders designed to prevent the mice from dispersing, spilling or contaminating the food. Mice that were able to disperse or soil the food were excluded from the study.
Thirty two-week old mice were randomly divided into three groups: (1) a control group in which no topiramate was added to the food, and (2) a group in which topiramate was added to the food in amounts sufficient to give a daily dose of 20 mg/kg for the entire 110-day dosing period, and (3) a group in which topiramate was added to the food in amounts sufficient to give a daily dose of 60 mg/kg for the entire dosing period.
The animals in each group were monitored for body weight, food consumption, blood glucose, HbA1C, insulin, triglycerides and physical signs of Type II diabetes mellitus or poor health. Body weight and food consumption were recorded twice-weekly on a Monday/Thursday or Tuesday/Friday schedule 8 to 12 hours into the light portion of the light-dark cycle. Body weight and food consumption were recorded using a scale designed for weights under 200 g. […] The mice were checked for skin lesions, and if present, the degree of severity was noted and recorded. If the general health of a mouse had deteriorated to a degree considered life threatening the mouse was euthanized.
Mice were allowed access to food containing topiramate until a few hours before being sacrificed by decapitation. Blood was collected from the neck wound into a parafilm-lined funnel. The blood was then transferred into beakers containing heparin. Plasma was separated from red blood cells by centrifugation. The plasma was frozen for subsequent analyses. Blood glucose levels, insulin and triglycerides were quantitated in the plasma. Glycated hemoglobin was also measured. The glycated hemoglobin required a 50 μl sample of whole blood, which was removed from the funnel before centrifugation. The plasma samples were then collected without freezing. All samples were packed in ice and shipped on the day blood was collected for overnight delivery to AniLytics, Inc. (200 Girard St., Suite 200, Gaithersburg, Md. 20877). The samples analyzed by AniLytics were assayed using standard procedures established by commercial laboratories that perform blood chemistry analyses. Statistical analysis was performed to determine if the data passed a test for normality (fit a Gaussian distribution). […] The data for a group of TPM-treated mice were compared to the control group.
Following the above described procedure, the effect of topiramate (TPM) on body weight (BW), glycated hemoglobin (HbA1C), blood glucose levels (BG), triglyceride and insulin levels in male ob/ob mice, were determined, with results as listed in Table 11. The abbreviation N represents the number of animals per group.

With `CC1(C)O[C@@H]2[C@@H](CO[C@@]3(COS(N)(=O)=O)OC(C)(C)O[C@@H]23)O1` [Topiramate, 2,3:4,5-bis-O-(1-methylethylidene)-β-D-fructopyranose sulfamate] the BG (20 mg/kg daily in food, n = 6) was 229.2 ± 46.0 mg/dL, the BW (20 mg/kg daily in food, n = 6) was 65.6 ± 2.8 g and the HbA1c (20 mg/kg daily in food, n = 6) was 4.98 ± 0.6%. For the same molecule, the Insulin (20 mg/kg daily in food, n = 6) was 12.2 ± 1.9 ng/mL, the Triglycerides (20 mg/kg daily in food, n = 6) was 104 ± 6.4 mg/dL and the “initial total incidence of skin lesions” value (20 mg/kg group) was 38%. The “mice died or had to be euthanized” value (20 mg/kg, first 60 days of dosing) was “four”, the BW (60 mg/kg daily in food, n = 7) was 67.5 ± 1.6 g and the HbA1c (60 mg/kg daily in food, n = 7) was 3.56 ± 0.4%. It also gave an Insulin (60 mg/kg daily in food, n = 7) of 11.4 ± 2.1 ng/mL, a Triglycerides (60 mg/kg daily in food, n = 7) of 88 ± 3.2 mg/dL and a BG (60 mg/kg daily in food, n = 7, P < 0.05) of 144.3 ± 20.0 mg/dL. For the same molecule, the “initial total incidence of skin lesions” value (60 mg/kg group) was 47%, the mice died (60 mg/kg, first 60 days of dosing) was “Two” and the “total incidence of lesions versus control” value (60 mg/kg/day, dosing period between 62 and 110 days) was “lower than in the control group”.
